The record followed here is patent US20260297081A1, “COMPOUNDS AND METHODS OF TREATING CANCERS” (Cullgen Inc., priority 2023, published 2026).

This test deals with MCF7 cells. Kind of test: Anti-proliferation (viability) of MCF7 cells (Table 7, FIG. 2B). Format: cell-based. Conditions: Homo sapiens, MCF7, MCF7 cells, 3-6 days, 10-point serial dilution; read-out: GI IC50 in MCF-7.

As to `CNc1ccc(C(=O)Nc2ccc(N(C)C)nn2)c(NCC23CC(NC(=O)CN4CCN(c5ccc(Nc6ncc7c(C)c(C(C)=O)c(=O)n(C8CCCC8)c7n6)nc5)CC4)(C2)C3)n1` [CPD-345, 2-(((3-(2-(4-(6-((6-acetyl-8-cyclopentyl-5-methyl-7-oxo-7,8-dihydropyrido[2,3-d]pyrimidin-2-yl)amino)pyridin-3-yl)piperazin-1-yl)acetamido)bicyclo[1.1.1]pentan-1-yl)methyl)amino)-N-(6-(dimethylamino)pyridazin-3-yl)-6-(methylamino)nicotinamide], the IC50 was over 0.1 µM.

`[2H]C([2H])([2H])Nc1ccc(C(=O)Nc2cn(C)c(C3CC3)n2)c(NC2CC3(CC(NC(=O)C(C)N4CCN(c5ccc(Nc6ncc7c(C)c(C(C)=O)c(=O)n(C8CCCC8)c7n6)nc5)CC4)C3)C2)n1` (stereo not drawn) [CPD-405, 2-((6-(2-(4-(6-((6-acetyl-8-cyclopentyl-5-methyl-7-oxo-7,8-dihydropyrido[2,3-d]pyrimidin-2-yl)amino)pyridin-3-yl)piperazin-1-yl)propanamido)spiro[3.3]heptan-2-yl)amino)-N-(2-cyclopropyl-1-methyl-1H-imidazol-4-yl)-6-((methyl-d3)amino)nicotinamide]: the IC50 is over 0.1 µM.

As for `CC(=O)c1c(C)c2cnc(Nc3ccc(N4CCC5(CC4)CC5C(=O)N4CCC(Nc5nc(NC(C)C)ccc5C(=O)Nc5cc(C)n(C)n5)CC4)cn3)nc2n(C2CCCC2)c1=O` (stereo not drawn) [CPD-408, 2-((1-(6-(6-((6-acetyl-8-cyclopentyl-5-methyl-7-oxo-7,8-dihydropyrido[2,3-d]pyrimidin-2-yl)amino)pyridin-3-yl)-6-azaspiro[2.5]octane-1-carbonyl)piperidin-4-yl)amino)-N-(1,5-dimethyl-1H-pyrazol-3-yl)-6-(isopropylamino)nicotinamide], the IC50 was under 0.05 µM.

Take `CC(=O)c1c(C)c2cnc(Nc3ccc(N4CCC(N(C)CC(=O)N5CCC(Nc6nc(NC(C)C)ccc6C(=O)Nc6ccc(N(C)C)nn6)C5)CC4)cn3)nc2n(C2CCCC2)c1=O` (stereo not drawn) [CPD-426, 2-((1-(N-(1-(6-((6-acetyl-8-cyclopentyl-5-methyl-7-oxo-7,8-dihydropyrido[2,3-d]pyrimidin-2-yl)amino)pyridin-3-yl)piperidin-4-yl)-N-methylglycyl)pyrrolidin-3-yl)amino)-N-(6-(dimethylamino)pyridazin-3-yl)-6-(isopropylamino)nicotinamide]: the IC50 was under 0.05 µM.

As for `CC(=O)c1c(C)c2cnc(Nc3ccc(N4CCC(NCC(=O)N5CC(Nc6nc(NC(C)C)ccc6C(=O)Nc6ccc(N(C)C)nn6)C5)CC4)cn3)nc2n(C2CCCC2)c1=O` [CPD-356, 2-((1-((1-(6-((6-acetyl-8-cyclopentyl-5-methyl-7-oxo-7,8-dihydropyrido[2,3-d]pyrimidin-2-yl)amino)pyridin-3-yl)piperidin-4-yl)glycyl)azetidin-3-yl)amino)-N-(6-(dimethylamino)pyridazin-3-yl)-6-(isopropylamino)nicotinamide], the IC50 lay in the range of 0.05 to 0.1 µM.

Take `CNc1ccc(C(=O)Nc2ccc(N(C)C)nn2)c(NC2CCC(C(=O)N3CCC4(CCN(c5ccc(Nc6ncc7c(C)c(C(C)=O)c(=O)n(C8CCCC8)c7n6)nc5)CC4)C3)CC2)n1` (stereo not drawn) [CPD-385, 2-((4-(8-(6-((6-acetyl-8-cyclopentyl-5-methyl-7-oxo-7,8-dihydropyrido[2,3-d]pyrimidin-2-yl)amino)pyridin-3-yl)-2,8-diazaspiro[4.5]decane-2-carbonyl)cyclohexyl)amino)-N-(6-(dimethylamino)pyridazin-3-yl)-6-(methylamino)nicotinamide]: the IC50 was in the range of 0.05 to 0.1 µM.
